From patent US20050064050A1 (priority 1999, published 2005)

Key:
[1] = molecular target: botulinum neurotoxin (BoNT/A) (Clostridium botulinum, UniProt P0DPI0); set-up: key to BoNT neutralization effects of tea-leaf extract ingredients: Effect: +: Effective in neutralization; −: Ineffective in neutralization
mouse = settings: in vivo, po

botulinum neurotoxin (BoNT/A), sequence (P0DPI0 whole entry, looked up): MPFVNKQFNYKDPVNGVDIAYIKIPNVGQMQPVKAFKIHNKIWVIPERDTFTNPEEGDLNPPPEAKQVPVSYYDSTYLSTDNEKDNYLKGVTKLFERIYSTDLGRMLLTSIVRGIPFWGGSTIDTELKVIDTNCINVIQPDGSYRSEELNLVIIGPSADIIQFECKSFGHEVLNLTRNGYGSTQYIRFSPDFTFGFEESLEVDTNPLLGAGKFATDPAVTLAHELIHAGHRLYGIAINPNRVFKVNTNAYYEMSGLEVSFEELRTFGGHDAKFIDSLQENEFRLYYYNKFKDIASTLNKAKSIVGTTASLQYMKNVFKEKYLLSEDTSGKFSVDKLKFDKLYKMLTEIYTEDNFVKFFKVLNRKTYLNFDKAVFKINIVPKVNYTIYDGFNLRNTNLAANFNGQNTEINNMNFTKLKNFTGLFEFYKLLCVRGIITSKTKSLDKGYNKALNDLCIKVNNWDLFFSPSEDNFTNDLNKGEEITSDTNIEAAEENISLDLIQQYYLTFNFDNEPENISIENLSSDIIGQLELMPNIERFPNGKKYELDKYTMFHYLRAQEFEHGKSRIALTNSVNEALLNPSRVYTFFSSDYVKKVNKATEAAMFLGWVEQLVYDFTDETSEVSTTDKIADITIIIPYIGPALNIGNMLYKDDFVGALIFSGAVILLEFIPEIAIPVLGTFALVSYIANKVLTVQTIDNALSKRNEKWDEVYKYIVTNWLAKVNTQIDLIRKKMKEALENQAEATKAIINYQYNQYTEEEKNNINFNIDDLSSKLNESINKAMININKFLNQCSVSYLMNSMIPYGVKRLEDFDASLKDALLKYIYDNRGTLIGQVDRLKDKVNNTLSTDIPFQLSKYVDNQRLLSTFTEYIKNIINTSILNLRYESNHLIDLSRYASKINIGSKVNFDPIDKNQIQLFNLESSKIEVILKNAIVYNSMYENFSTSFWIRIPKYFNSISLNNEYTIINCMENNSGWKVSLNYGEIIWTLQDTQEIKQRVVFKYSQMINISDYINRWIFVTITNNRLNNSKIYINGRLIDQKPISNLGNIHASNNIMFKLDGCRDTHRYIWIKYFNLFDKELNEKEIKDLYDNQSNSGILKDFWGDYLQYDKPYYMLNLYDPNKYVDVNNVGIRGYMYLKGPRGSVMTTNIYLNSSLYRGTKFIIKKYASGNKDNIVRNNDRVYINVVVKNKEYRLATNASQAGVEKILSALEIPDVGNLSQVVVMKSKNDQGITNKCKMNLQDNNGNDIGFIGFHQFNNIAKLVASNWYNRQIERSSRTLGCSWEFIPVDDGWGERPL

| Molecule | BoNT neutralization effects of tea-leaf extract ingredients: Effect [1] | BoNT neutralizing effect (in words) [1] | toxicity (in words) (mouse) |
| --- | --- | --- | --- |
| O=C(OC[C@H]1O[C@@H](OC(=O)c2cc(O)c(O)c(OC(=O)c3cc(O)c(O)c(O)c3)c2)[C@H](OC(=O)c2cc(O)c(O)c(OC(=O)c3cc(O)c(O)c(O)c3)c2)[C@@H](OC(=O)c2cc(O)c(O)c(OC(=O)c3cc(O)c(O)c(O)c3)c2)[C@@H]1OC(=O)c1cc(O)c(O)c(OC(=O)c2cc(O)c(O)c(O)c2)c1)c1cc(O)c(O)c(OC(=O)c2cc(O)c(O)c(O)c2)c1 [Tannic Acid, tannic acid] | − | showed no neutralizing effect |  |
| O=c1c(O)cc([C@H]2Oc3cc(O)cc(O)c3C[C@H]2O)cc2c([C@H]3Oc4cc(O)cc(O)c4C[C@H]3O)cc(O)c(O)c12 [Theaflavin, theaflavin] | − | showed no neutralizing effect |  |
| catechin | − | showed no neutralizing effect |  |
| thearubigin |  |  | no toxicity |
